Experimental data published in ChEMBL document CHEMBL4396884, “Structure-Aided Identification and Optimization of Tetrahydro-isoquinolines as Novel PDE4 Inhibitors Leading to Discovery of an Effective Antipsoriasis Agent” (J Med Chem, 2019).
Blank lines part the entries; values can stand above or below the compound they belong to. Calls of active or inactive are those of the source. The calls are words filed in the database; no cut-off is given here.

Assays:
[1] = molecular target: 3',5'-cyclic-AMP phosphodiesterase 4D (Homo sapiens) (UniProt Q08499); experiment: Inhibition of recombinant human PDE4D catalytic domain at 1 uM using [3H]cAMP as substrate measured after 30 mins by scintillation proximity assay relative to control
[2] = Permeability across apical to basal side in human Caco2 cells assessed as drug recovery measured after 95 mins by LC-MS/MS analysis; type: ADME, cell-based; conditions: Caco-2, read-out: Drug recovery
[3] = Permeability across basal to apical side in human Caco2 cells assessed as drug recovery measured after 95 mins by LC-MS/MS analysis; type: ADME, cell-based; conditions: Caco-2, read-out: Drug recovery
[4] = Apparent permeability across apical to basal side in human Caco2 cells measured after 95 mins by LC-MS/MS analysis; type: ADME, cell-based; conditions: Caco-2
[5] = Apparent permeability across basal to apical side in human Caco2 cells measured after 95 mins by LC-MS/MS analysis; type: ADME, cell-based; conditions: Caco-2
[6] = AUC (0 to t) in Sprague-Dawley rat at 10 mg/kg, iv by LC-MS/MS analysis; type: ADME, organism-based; conditions: in vivo
[7] = AUC (0 to infinity) in Sprague-Dawley rat at 10 mg/kg, iv by LC-MS/MS analysis; type: ADME, organism-based; design: dose 10 mg/kg, route intravenous, time infinity; conditions: in vivo
[8] = MRT in Sprague-Dawley rat at 10 mg/kg, iv by LC-MS/MS analysis; type: ADME, organism-based; conditions: in vivo
[9] = Half life in Sprague-Dawley rat at 10 mg/kg, iv by LC-MS/MS analysis; type: ADME, organism-based; conditions: in vivo
[10] = Clearance in Sprague-Dawley rat at 10 mg/kg, iv by LC-MS/MS analysis; type: ADME, organism-based; conditions: in vivo
[11] = Volume of distribution at steady state in Sprague-Dawley rat at 10 mg/kg, iv by LC-MS/MS analysis; type: ADME, organism-based; conditions: in vivo, read-out: Vdss
[12] = Tmax in Sprague-Dawley rat at 25 mg/kg, po by LC-MS/MS analysis; type: ADME, organism-based; conditions: in vivo
[13] = Cmax in Sprague-Dawley rat at 25 mg/kg, po by LC-MS/MS analysis; type: ADME, organism-based; design: dose 25 mg/kg, route oral; conditions: in vivo
[14] = AUC (0 to t) in Sprague-Dawley rat at 25 mg/kg, po by LC-MS/MS analysis; type: ADME, organism-based; conditions: in vivo
[15] = AUC (0 to infinity) in Sprague-Dawley rat at 25 mg/kg, po by LC-MS/MS analysis; type: ADME, organism-based; design: dose 25 mg/kg, route oral, time infinity; conditions: in vivo
[16] = MRT in Sprague-Dawley rat at 25 mg/kg, po by LC-MS/MS analysis; type: ADME, organism-based; conditions: in vivo
[17] = Half life in Sprague-Dawley rat at 25 mg/kg, po by LC-MS/MS analysis; type: ADME, organism-based; conditions: in vivo
Mus musculus [18] = experiment: Antiinflammatory activity in specific pathogen free BALB/c mouse assessed as inhibition of LPS-induced TNFalpha secretion in serum at 1 mg/kg, po administered as single dose pretreated for 1.5 hrs followed by LPS stimulation and measured after 2 hrs by ELISA; type: functional, organism-based
[19] = Oral bioavailability in Sprague-Dawley rat at 25 mg/kg by LC-MS/MS analysis; type: ADME, organism-based; conditions: in vivo
Mus musculus [20] = experiment: Antiinflammatory activity in specific pathogen free BALB/c mouse assessed as inhibition of LPS-induced IL6 secretion in serum at 1 mg/kg, po administered as single dose pretreated for 1.5 hrs followed by LPS stimulation and measured after 2 hrs by ELISA; type: functional, organism-based
Mus musculus [21] = experiment: Antiinflammatory activity in specific pathogen free BALB/c mouse assessed as inhibition of LPS-induced IL12p40 secretion in serum at 1 mg/kg, po administered as single dose pretreated for 1.5 hrs followed by LPS stimulation and measured after 2 hrs by ELISA; type: functional, organism-based
Mus musculus [22] = experiment: Antiinflammatory activity in specific pathogen free BALB/c mouse assessed as inhibition of LPS-induced TNFalpha secretion in spleen at 1 mg/kg, po administered as single dose pretreated for 1.5 hrs followed by LPS stimulation and measured after 2 hrs by ELISA; type: functional, organism-based
Mus musculus [23] = experiment: Antiinflammatory activity in specific pathogen free BALB/c mouse assessed as inhibition of LPS-induced IL6 secretion in spleen at 1 mg/kg, po administered as single dose pretreated for 1.5 hrs followed by LPS stimulation and measured after 2 hrs by ELISA; type: functional, organism-based
Mus musculus [24] = experiment: Antiinflammatory activity in specific pathogen free BALB/c mouse assessed as inhibition of LPS-induced IL12p40 secretion in spleen at 1 mg/kg, po administered as single dose pretreated for 1.5 hrs followed by LPS stimulation and measured after 2 hrs by ELISA; type: functional, organism-based
Mus musculus [25] = experiment: Protection against imiquimod-induced skin inflammation in BALB/c mouse psoriasis model assessed as decrease in lesion thickness at 25 mg/kg, po administered once daily for 7 days; type: functional, organism-based
Mus musculus [26] = experiment: Protection against imiquimod-induced skin inflammation in BALB/c mouse psoriasis model assessed as decrease in skin scaling at 25 mg/kg, po administered once daily for 7 days; type: functional, organism-based
Mus musculus [27] = experiment: Protection against imiquimod-induced skin inflammation in BALB/c mouse psoriasis model assessed as decrease in skin erythema at 25 mg/kg, po administered once daily for 7 days; type: functional, organism-based
Mus musculus [28] = experiment: Protection against imiquimod-induced skin inflammation in BALB/c mouse psoriasis model assessed as decrease in cumulative psoriasis score at 25 mg/kg, po administered once daily for 7 days; type: functional, organism-based
Mus musculus [29] = experiment: Protection against imiquimod-induced skin inflammation in BALB/c mouse psoriasis model assessed as decrease in lesion thickness at 62.5 mg administered topically as cream formulation once daily for 7 days; type: functional, organism-based
Mus musculus [30] = experiment: Protection against imiquimod-induced skin inflammation in BALB/c mouse psoriasis model assessed as decrease in skin scaling at 62.5 mg administered topically as cream formulation once daily for 7 days; type: functional, organism-based
Mus musculus [31] = experiment: Protection against imiquimod-induced skin inflammation in BALB/c mouse psoriasis model assessed as decrease in skin erythema at 62.5 mg administered topically as cream formulation once daily for 7 days; type: functional, organism-based
[32] = molecular target: Phosphodiesterase 4 (Homo sapiens) (UniProt P27815+Q08499+Q07343+Q08493); experiment: Inhibition of PDE4 in human PBMC assessed as reduction in LPS-stimulated TNFalpha production at 10 uM preincubated for 1 hr followed by LPS stimulation and measured after 18 to 20 hrs by ELISA relative to control; type: protein assay
[33] = molecular target: 3',5'-cyclic-AMP phosphodiesterase 4D (Homo sapiens) (UniProt Q08499); experiment: Inhibition of recombinant human PDE4D catalytic domain at 10 uM using [3H]cAMP as substrate measured after 30 mins by scintillation proximity assay relative to control

Sequence of 3',5'-cyclic-AMP phosphodiesterase 4D (Homo sapiens) (Q08499 whole entry, the tested form may be a part): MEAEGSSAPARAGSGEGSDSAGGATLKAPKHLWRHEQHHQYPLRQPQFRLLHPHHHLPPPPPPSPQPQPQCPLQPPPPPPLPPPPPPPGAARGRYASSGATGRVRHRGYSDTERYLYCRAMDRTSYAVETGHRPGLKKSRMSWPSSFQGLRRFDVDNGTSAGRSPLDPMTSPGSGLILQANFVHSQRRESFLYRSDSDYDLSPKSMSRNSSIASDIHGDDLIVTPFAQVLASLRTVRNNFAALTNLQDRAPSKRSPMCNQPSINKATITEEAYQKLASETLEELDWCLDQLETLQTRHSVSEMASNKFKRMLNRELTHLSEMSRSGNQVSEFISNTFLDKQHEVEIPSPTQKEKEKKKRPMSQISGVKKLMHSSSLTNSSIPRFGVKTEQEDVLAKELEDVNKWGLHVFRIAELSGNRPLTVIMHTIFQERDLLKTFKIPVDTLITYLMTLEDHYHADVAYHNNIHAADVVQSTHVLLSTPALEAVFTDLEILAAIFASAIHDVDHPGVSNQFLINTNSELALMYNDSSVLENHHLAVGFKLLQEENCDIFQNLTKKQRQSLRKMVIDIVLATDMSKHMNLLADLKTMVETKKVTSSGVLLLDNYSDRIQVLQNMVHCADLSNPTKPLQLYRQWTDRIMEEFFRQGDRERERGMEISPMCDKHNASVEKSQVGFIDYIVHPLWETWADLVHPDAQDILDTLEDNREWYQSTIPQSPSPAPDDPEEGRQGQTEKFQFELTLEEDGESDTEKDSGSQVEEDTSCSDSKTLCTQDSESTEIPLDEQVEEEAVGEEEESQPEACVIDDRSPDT

Structure (SMILES): COc1cc2c(cc1OC)[C@H](CCc1c[nH]c3cc(C)ccc13)N(C=O)CC2
recovery at 95 min [2]: 92.3%
recovery at 95 min [3]: 96.8%
Papp A→B at 95 min [4]: 18.4 ×10⁻⁶ cm/s
Papp B→A at 95 min [5]: 19.9 ×10⁻⁶ cm/s
AUC(0-t) [6]: 6210 ng·h/mL
AUC(0-inf) [7]: 6280 ng·h/mL
MRT [8]: 55.2 min
half-life [9]: 36 min
clearance [10]: 28.3 mL/min/kg
Vd [11]: 1.56 L/kg
Tmax [12]: 79.8 min
Cmax [13]: 2450 ng/mL
AUC(0-t) [14]: 8390 ng·h/mL
AUC(0-inf) [15]: 8460 ng·h/mL
MRT [16]: 150 min
half-life [17]: 56.4 min
Activity (Mus musculus [18]): Active
bioavailability [19]: 68.3%
Activity (Mus musculus [20]): Active
Activity (Mus musculus [21]): Active
Activity (Mus musculus [22]): Active
Activity (Mus musculus [23]): Active
Activity (Mus musculus [24]): Active
Activity (Mus musculus [25]): Active
Activity (Mus musculus [26]): Active
Activity (Mus musculus [27]): Active
Activity (Mus musculus [28]): Active
Activity (Mus musculus [29]): Active
Activity (Mus musculus [30]): Active
Activity (Mus musculus [31]): Active

Structure (SMILES): COCCN1CCc2cc(OC)c(OC)cc2C1CCc1c[nH]c2ccccc12 (racemic)
inhibition [1]: 19.2%
inhibition [32]: 25.7%

Structure (SMILES): COc1cc2c(cc1OC)C(CCc1c[nH]c3ccccc13)N(CC1CCOCC1)CC2 (racemic)
inhibition [33]: 34.6%
inhibition [32]: 36.7%

Structure (SMILES): COc1cc2c(cc1OC)C(CCc1c[nH]c3ccccc13)N(CC(F)(F)F)CC2 (racemic)
inhibition [1]: 19.5%

Structure (SMILES): CCOc1cc([C@@H](CS(C)(=O)=O)N2C(=O)c3cccc(NC(C)=O)c3C2=O)ccc1OC
recovery at 95 min [2]: 96.7%
recovery at 95 min [3]: 92.1%
Papp A→B at 95 min [4]: 14.9 ×10⁻⁶ cm/s
Papp B→A at 95 min [5]: 29 ×10⁻⁶ cm/s
Activity (Mus musculus [25]): Active
Activity (Mus musculus [26]): Active
Activity (Mus musculus [27]): Active
Activity (Mus musculus [28]): Active

Structure (SMILES): COc1cc2c(cc1OC1CCCC1)[C@H](CCc1c[nH]c3cc(C)ccc13)N(C=O)CC2
inhibition [1]: 24%

Next, values leading:

inhibition [1]: 39.1%
Structure (SMILES): COC(=O)CN1CCc2cc(OC)c(OC)cc2C1CCc1c[nH]c2ccccc12 (racemic)

inhibition [1]: 30.7%
Structure (SMILES): COc1cc2c(cc1OC)C(CCc1c[nH]c3ccccc13)N(C(=O)c1ccncc1)CC2 (racemic)

inhibition [1]: 16.4%
Structure (SMILES): COc1cc2c(cc1OC)C(CCc1c[nH]c3ccccc13)N(C(=O)C1CCOCC1)CC2 (racemic)
